Key:
AVEFA [1] = assay: Greenhouse trial: PE application vs application 7 days prior to sowing (test method 6); assay type: in vivo, Avena fatua
Method: (§1) In the standard design of the test, seeds of various broad-leaved weed and weed grass biotypes (origins) were sown in a 8-13 cm diameter pot filled with natural soil of a standard field soil (loamy silt; non-sterile) and covered with a covering soil layer of about 1 cm. The pots were then cultivated in a greenhouse (12-16 h of light, temperature day 20-22° C., night 15-18° C.) until the time of application. The pots were treated on a laboratory track sprayer with spray liquors comprising the compositions according to the invention, mixtures of the prior art or components used individually. Application of the active compounds or active compound combinations formulated as WG, WP, EC or otherwise was carried out at the appropriate growth stages of the plants. The application rate for the spray application was 100-600 l of water/ha. After the treatment, the plants were returned to the greenhouses.
(§2) About 3 weeks after the application, the soil action or/and foliar action was assessed visually according to a scale of 0-100% in comparison to an untreated comparative group: 0%=no noticeable effect compared to the untreated comparative group; 100%=full effect compared to the untreated comparative group.
(§3) (notes: the term “seeds” also includes vegetative propagation forms such as, for example, rhizome pieces; abbreviations used: h light=hours of illumination, g of AS/ha=gram of active substance per hectare, I/ha=liter per hectare, S=sensitive, R=resistant) • 1. Pre-emergence action against weeds: seeds of various broad-leaved weed and weed grass biotypes (origins) were sown in a 8-13 cm diameter pot filled with natural soil of a standard field soil (loamy silt; non-sterile) and covered with a covering soil layer of about 1 cm. The pots were then cultivated in a greenhouse (12-16 h of light, temperature day 20-22° C., night 15-18° C.) until the time of application. The pots were treated at the BBCH stage 00-10 of the seeds/plants on a laboratory track sprayer with spray liquors comprising the compositions according to the invention, mixtures or components used individually, as WG, WP, EC or other formulations. The application rate for the spray application was 100-600 l of water/ha. After the treatment, the plants were returned to the greenhouses and, when required, treated with fertilizer and watered. • 2. Post-emergence action against weeds: seeds of various broad-leaved weed and weed grass biotypes (origins) were sown in a 8-13 cm diameter pot filled with natural soil of a standard field soil (loamy silt; non-sterile) and covered with a covering soil layer of about 1 cm. The pots were then cultivated in a greenhouse (12-16 h of light, temperature day 20-22° C., night 15-18° C.) until the time of application. The pots were treated at various BBCH stages between 11-25 of the seeds/plants, i.e. generally between two to three weeks after the start of the cultivation, on a laboratory track sprayer with spray liquors comprising the compositions according to the invention, mixtures or components used individually, as WG, WP, EC or other formulations. The application rate for the spray application was 100-600 l of water/ha. After the treatment, the plants were returned to the greenhouses and, when required, treated with fertilizer and watered. • 3. Pre-emergence action against weeds with and without incorporation of active compound: seeds of various broad-leaved weed and weed grass biotypes (origins) were sown in a 8-13 cm diameter pot filled with natural soil of a standard field soil (loamy silt; non-sterile). […]

POAAN [2] = assay: Greenhouse trial: PO application (test methods 2 and 5); assay type: in vivo, Poa annua; settings: g of AS/ha: (A) 120, (B) 1600, (C) 140, (A)+(B)+(C) 120 + 1600 + 140
Method: as §1, §2
(§4) (notes: the term “seeds” also includes vegetative propagation forms such as, for example, rhizome pieces; abbreviations used: h light=hours of illumination, g of AS/ha=gram of active substance per hectare, I/ha=liter per hectare, S=sensitive, R=resistant) • 1. Pre-emergence action against weeds: seeds of various broad-leaved weed and weed grass biotypes (origins) were sown in a 8-13 cm diameter pot filled with natural soil of a standard field soil (loamy silt; non-sterile) and covered with a covering soil layer of about 1 cm. The pots were then cultivated in a greenhouse (12-16 h of light, temperature day 20-22° C., night 15-18° C.) until the time of application. […]

POAAN [3] = assay: Greenhouse trial: PE soil application vs incorporation into the soil (test methods 1, 3 and 4); assay type: in vivo, Poa annua; settings: g of AS/ha: (A) 120, (B) 1200, (C) 140, (A)+(B)+(C) 120 + 1200 + 140
Method: as §1, §2, §3

MATCH [4] = assay: Greenhouse trial: different sowing depths on PE application (test method 10); assay type: in vivo, Matricaria chamomilla; settings: g of AS/ha: (A) 90, (B) 1200, (C) 140, (A)+(B)+(C) 90 + 1200 + 140; for activity MATCH 5 mm: sowing depth 5 mm; for activity MATCH 20 mm: sowing depth 20 mm
Method: as §1, §2, §3

LOLPE [5] = assay: Greenhouse trial: different soil types (test method 8); assay type: in vivo, Lolium perenne; settings: g of AS/ha: (A) 120, (B) 1200, (C) 90, (A)+(B)+(C) 120 + 1200 + 90
Method: as §1, §2, §3

APESV [6] = assay: Greenhouse trial: different sowing depths on PE application (test method 10); assay type: in vivo, Apera Spica-venti; settings: g of AS/ha: (A) 90, (B) 1200, (C) 140, (A)+(B)+(C) 90 + 1200 + 140; for activity APESV 5 mm: sowing depth 5 mm; for activity APESV 20 mm: sowing depth 20 mm
Method: as §1, §2, §3

AVEFA [7] = assay: Greenhouse trial: PE application with different irrigation variants (test method 7); assay type: in vivo, Avena fatua; settings: g of AS/ha: (A) 120, (B) 1200, (C) 140, (A)+(B)+(C) 120 + 1200 + 140
Method: as §1, §2, §3

STEME = assay: Greenhouse trial: resistant biotypes following PE application (test method 9); assay type: in vivo, Stellaria media; settings: g of AS/ha: (A) 90, (B) 1200, (C) 140, (A)+(B)+(C) 90 + 1200 + 140, iodosulfuron 10; for activity STEME resistant / activity STEME sensitive: PE; for activity STEME resistant: resistant biotype; for activity STEME sensitive: sensitive biotype
Method: as §1, §2, §3

APESV [8] = assay: Greenhouse trial: PO application (test methods 2 and 5); assay type: in vivo, Apera Spica-venti; settings: g of AS/ha: (A) 120, (B) 1600, (C) 140, (A)+(B)+(C) 120 + 1600 + 140
Method: as §1, §2, §4

MATCH [9] = assay: Greenhouse trial: PE application with different irrigation variants (test method 7); assay type: in vivo, Matricaria chamomilla; settings: g of AS/ha: (A) 120, (B) 1200, (C) 140, (A)+(B)+(C) 120 + 1200 + 140
Method: as §1, §2, §3

LOLPE [10] = assay: Greenhouse trial: PE application vs application 7 days prior to sowing (test method 6); assay type: in vivo, Lolium perenne
Method: as §1, §2, §3

MATCH [11] = assay: Greenhouse trial: different soil types (test method 8); assay type: in vivo, Matricaria chamomilla; settings: g of AS/ha: (A) 120, (B) 1200, (C) 140, (A)+(B)+(C) 120 + 1200 + 140
Method: as §1, §2, §3

LOLSS = assay: Greenhouse trial: resistant biotypes following PE application (test method 9); assay type: in vivo, Lolium species; settings: g of AS/ha: (A) 90, (B) 1200, (C) 140, (A)+(B)+(C) 90 + 1200 + 140, iodosulfuron 10; for activity LOLSS resistant / activity LOLSS sensitive: PE; for activity LOLSS resistant: resistant biotype; for activity LOLSS sensitive: sensitive biotype
Method: as §1, §2, §3

LOLPE [12] = assay: Greenhouse trial: PE application with different irrigation variants (test method 7); assay type: in vivo, Lolium perenne; settings: g of AS/ha: (A) 120, (B) 1200, (C) 140, (A)+(B)+(C) 120 + 1200 + 140
Method: as §1, §2, §3

HORVS [13] = assay: Greenhouse trial: PO application (test methods 2 and 5); assay type: in vivo, Hordeum vulgare, summer barley; settings: g of AS/ha: (A) 120, (B) 1600, (C) 140, (A)+(B)+(C) 120 + 1600 + 140
Method: as §1
as §2, with “group. […]” for “group.”

HORVS [14] = assay: Greenhouse trial: PE application vs application 7 days prior to sowing (test method 6); assay type: in vivo, Hordeum vulgare, summer barley; settings: g of AS/ha: (A) 90, (B) 1200, (C) 140, mixture 90 + 1200 + 140
Method: as §1
as §2, with “group. […]” for “group.”

TRZAS [15] = assay: as above; assay type: in vivo, Triticum aestivum, summer wheat; settings: g of AS/ha: (A) 90, (B) 1200, (C) 140, (A)+(B)+(C) 90 + 1200 + 140
Method: as §1
as §2, with “group. […]” for “group.”

HORVS [16] = assay: Greenhouse trial: different soil types (test method 8); assay type: in vivo, Hordeum vulgare, summer barley; settings: g AS/ha: (A) 120, (B) 1200, (C) 140, (A)+(B)+(C) 120 + 1200 + 140
Method: as §1, §2, §4

TRZAS [17] = assay: Greenhouse trial: PE soil application vs incorporation into the soil (test methods 1, 3 and 4); assay type: in vivo, Triticum aestivum, summer wheat; settings: g of AS/ha: (A) 120, (B) 1200, (C) 140, (A)+(B)+(C) 120 + 1200 + 140
Method: as §1
as §2, with “group. […]” for “group.”

[18] = PE application, g of AS/ha: (A) 90, (B) 1200, (C) 140, mixture 90 + 1200 + 140
[19] = application 7 days prior to sowing, g of AS/ha: (A) 90, (B) 1200, (C) 140, (A)+(B)+(C) 90 + 1200 + 140

Compound | activity AVEFA (AVEFA [1]; [18]) [%] | activity AVEFA (AVEFA [1]; [19]) [%] | activity POAAN (POAAN [2]) [%] | activity POAAN (POAAN [3]; Incorporation) [%] | activity POAAN (POAAN [3]; PE application) [%] | activity MATCH 5 mm (MATCH [4]) [%] | activity MATCH 20 mm (MATCH [4]) [%] | activity LOLPE IU soil (LOLPE [5]) [%] | activity LOLPE IU/EC73 soil (LOLPE [5]) [%] | activity APESV 5 mm (APESV [6]) [%] | activity APESV 20 mm (APESV [6]) [%] | activity AVEFA (AVEFA [7]; Irrigation from above) [%] | activity AVEFA (AVEFA [7]; Irrigation from below) [%] | activity STEME resistant (STEME) [%] | activity STEME sensitive (STEME) [%] | activity APESV (APESV [8]) [%] | activity MATCH (MATCH [9]; Irrigation from above) [%] | activity MATCH (MATCH [9]; Irrigation from below) [%] | activity LOLSS resistant (LOLSS) [%] | activity LOLSS sensitive (LOLSS) [%] | also measured
CC(C)N(C(=O)COc1nnc(C(F)(F)F)s1)c1ccc(F)cc1 [(A) flufenacet, N-(4-fluorophenyl)-N-(1-methylethyl)-2-[[5-(trifluoromethyl)-1,3,4-thiadiazol-2-yl]oxy]acetamide] | 80 | 70 | 60 | 90 | 70 | 30 | 30 | 89 | 0 | 65 | 70 | 85 | 50 | 0 | 0 | 60 | 49 | 35 | 10 | 85 | Difference Δ^D activity resistant to activity sensitive, STEME (STEME): Δ^D ± 0%; activity LOLPE (LOLPE [10]; [18]): 90%; activity LOLPE (LOLPE [10]; [19]): 80%; activity MATCH IU soil (MATCH [11]): 80%; activity MATCH IU/EC73 soil (MATCH [11]): 0%; activity LOLPE (LOLPE [12]; Irrigation from above): 80%; activity LOLPE (LOLPE [12]; Irrigation from below): 78%
CCCN(CCC)C(=O)SCc1ccccc1 [(B) prosulfocarb, S-(phenylmethyl) dipropylcarbamothioate] | 80 | 10 | 30 | 85 | 35 | 0 | 0 | 0 | 0 | 50 | 20 | 5 | 10 | 40 | 70 | 20 | 0 | 0 | 65 | 85 | Difference of the soil types Δ^D, LOLPE (LOLPE [5]; IU/EC73 soil vs IU soil): Δ^D + 0%; activity LOLPE (LOLPE [10]; [18]): 80%; activity LOLPE (LOLPE [10]; [19]): 0%; activity MATCH IU soil (MATCH [11]): 10%; activity MATCH IU/EC73 soil (MATCH [11]): 0%; activity LOLPE (LOLPE [12]; Irrigation from above): 10%; activity LOLPE (LOLPE [12]; Irrigation from below): 5%
CSc1nnc(C(C)(C)C)c(=O)n1N [(C) metribuzin, 4-amino-6-(1,1-dimethylethyl)-3-(methylthio)-1,2,4-triazon-5(4H)-one] | 10 | 0 | 79 | 68 | 0 | 100 | 70 | 75 | 5 | 75 | 100 | 30 | 30 | 98 | 100 | 79 | 0 | 60 | 70 | 70 | activity HORVS (crop plant) (HORVS [13]): 70%; activity HORVS (crop plant) (HORVS [14]): 50%; activity TRZAS (crop plant) (TRZAS [15]): 30%; activity HORVS IU soil (crop plant) (HORVS [16]; IU soil): 0%; Difference of the soil types, HORVS (HORVS [16]; IU/EC73 soil vs IU soil): 0%; activity HORVS IU/EC73 soil (crop plant) (HORVS [16]; IU/EC73 soil): 0%; activity LOLPE (LOLPE [10]; [18]): 70%; activity LOLPE (LOLPE [10]; [19]): 0%; activity MATCH IU soil (MATCH [11]): 0%; Difference of the soil types Δ^D, MATCH (MATCH [11]; IU/EC73 soil vs IU soil): Δ^D + 5%; activity MATCH IU/EC73 soil (MATCH [11]): 15%; activity TRZAS (crop plant) (TRZAS [17]; Incorporation): 100%; activity TRZAS (crop plant) (TRZAS [17]; PE application): 65%; Difference Δ^D activity resistant to activity sensitive, LOLSS (LOLSS): Δ^D ± 0%; activity LOLPE (LOLPE [12]; Irrigation from above): 55%; activity LOLPE (LOLPE [12]; Irrigation from below): 48%
COc1nc(C)nc(NC(=O)NS(=O)(=O)c2cc(I)ccc2C(=O)O)n1 [iodosulfuron] |  |  |  |  |  |  |  |  |  |  |  |  |  | 40 | 90 |  |  |  | 50 | 98 | 
